According to patent publication US4724259A, “Azo dyes and liquid-crystalline materials containing these dyes” (BASF Aktiengesellschaft, priority 1983, dated 1988):

How the values were obtained:
Type in all cases: physicochemical
[1] = Degree of order S in nematic broad-range mixture (dichroic ratio, homogeneous edge orientation, ground PVA cells); settings: room temperature
Procedure: The degree of order S was determined using the conventional equation [formula] the measurement being carried out in commercial measuring cells with a homogeneous edge orientation (ground PVA). The dichroic ratio CR was determined by measuring the extinctions E" (measurement with light polarized parallel to the preferred direction of the nematic phase) and E^.perp. (measurement with light polarized perpendicular to the preferred direction of the nematic phase) and using the relationship CR=E"/E^.perp. the dye concentration being chosen so that E" was from 1 to 2. The measurements were carried out in a Beckmann Acta CIII spectrophotometer.

[2] = Solubility L in liquid crystal mixture (saturated solution, comparison of extinction); settings: room temperature, percentages by weight unless stated otherwise
[3] = Light stability: high-speed exposure of the measuring cell in a Suntest from Hanau; settings: 25° C., at the stated λmax
Procedure: The light stability was determined by high-speed exposure of the measuring cell in a Suntest from Hanau, at 25° C. In this procedure, the decrease in E" was measured. […] E" was determined at the stated λmax values.

[4] = ZLI 1840 (Merck), 1 week stirring

Degree of order S ([1]; ZLI 1840 (Merck))	Solubility L [2, 4]	E80% " (exposure time after which E"o has decreased to 80%) [3]	Eo " (initial extinction) [3]	Degree of order S ([1]; ZLI 1957/5 (Merck))	Solubility L ([2]; ZLI 1957/5 (Merck))	Compound
0.75	0.9%	–	–	–	–	Cc1cc(O)ccc1N=Nc1ccc(N=Nc2ccc(N=Nc3ccc(OCc4ccccc4)cc3C)cc2)cc1 [Example 1, 4-(2-methyl-4-hydroxyphenylazo)-4'-(2-methyl-4-benzyloxyphenylazo)-azobenzene]
0.77	1.0%	110 h	1.95	–	–	Cc1cc(C)c(COc2ccc(N=Nc3ccc(N=Nc4ccc(N=Nc5ccc(OCc6c(C)cc(C)cc6C)cc5C)cc4)cc3)c(C)c2)c(C)c1 [Example 3]
0.75	0.3%	–	–	–	–	Cc1cc(OCc2ccc(C(C)(C)C)cc2)ccc1N=Nc1ccc(N=Nc2ccc(N=Nc3ccc(OCc4ccc(C(C)(C)C)cc4)cc3C)cc2)cc1 [Example 4]
0.79	1.9%	70 h	1.23	–	–	CCCCCC1CCC(c2ccc(COc3ccc(N=Nc4ccc(N=Nc5ccc(N=Nc6ccc(O)cc6C)cc5)cc4)c(C)c3)cc2)CC1 (centres unmarked) [Example 5]
0.79	0.3%	–	–	–	–	CCCCC1CCC(c2ccc(COc3ccc(N=Nc4ccc(N=Nc5ccc(N=Nc6ccc(OCc7ccc(C8CCC(CCCC)CC8)cc7)cc6C)cc5)cc4)c(C)c3)cc2)CC1 (centres unmarked) [Example 8]
0.81	0.8%	140 h	1.51	–	–	CCCCCC1CCC(c2ccc(COc3ccc(N=Nc4ccc(N=Nc5ccc(N=Nc6ccc(OCc7ccc(C8CCC(CCCCC)CC8)cc7)cc6C)cc5)cc4)c(C)c3)cc2)CC1 (centres unmarked) [Example 9]
–	–	–	–	0.81	1.2%	CCCCCc1ccc(COc2ccc(N=Nc3ccc(N=Nc4ccc(N=Nc5ccc(OCc6ccc(CCCCC)cc6)cc5C)cc4)cc3)c(C)c2)cc1 [Example 10]
–	–	–	–	0.76	0.7%	Cc1cc(OCc2cc(C(C)(C)C)cc(C(C)(C)C)c2)ccc1N=Nc1ccc(N=Nc2ccc(N=Nc3ccc(OCc4cc(C(C)(C)C)cc(C(C)(C)C)c4)cc3C)cc2)cc1 [Example 11]
–	–	–	–	0.80	3%	CCCCCc1ccc(COc2cc(C)c(N=Nc3ccc(N=Nc4ccc(N=Nc5c(C)cc(OCc6ccc(CCCCC)cc6)cc5C)cc4)cc3)c(C)c2)cc1 [Example 16]
–	–	–	–	0.81	0.2%	CCCCCC1CCC(c2ccc(COc3cc(C)c(N=Nc4ccc(N=Nc5ccc(N=Nc6c(C)cc(OCc7ccc(C8CCC(CCCCC)CC8)cc7)cc6C)cc5)cc4)c(C)c3)cc2)CC1 (centres unmarked) [Example 17]
